What was measured:
Assay type in all cases: cell-based, mouse
[1] = test system: MEFs infected with the four factors (Oct4, Sox2, Klf4 and c-Myc); assay: GFP positive iPS colony number in 4-factor infected MEFs
Description: FIG. 1(c) Representative pictures at 11 days post-infection showing a significant increase of GFP positive iPS colonies in infected MEFs with VPA treatment compared to non-treated control.
Consistent with the FACS data, GFP positive iPS colonies emerge sooner and in greater numbers with VPA treatment. […] GFP positive colonies only start to emerge after 10 days post-infection in untreated cells.
For the generation of mouse iPS cells, infected MEFs were cultured in mouse ES cell media until iPS colonies were ready to be picked. In some experiments, knockout serum replacement was used instead of the Hyclone FBS in the mouse ES cell media, which appeared to accelerate the reprogramming process, consistent with a recent report^26. Chemical treatment started 1 or 2 days post-infection and lasted for a week in general. iPS colonies were picked between 9-21 days post-infection based on GFP expression and colony morphology. The picked colonies were then expanded and maintained on irradiated MEF feeder layers in mouse ES cell media.

[2] = test system: MEFs infected with the four factors (Oct4, Sox2, Klf4 and c-Myc); conditions: 2 mM; 4-factor infected MEFs
Description: FIG. 1(a) MEFs infected with the four factors (Oct4, Sox2, Klf4 and c-Myc) were treated with various chemicals for a week, the percentage of Oct4-GFP positive cells induced was measured through FACS analysis, and compared to infected MEFs without treatment or treated with DMSO (the solvent for Dexamethasone, SAHA and TSA). The chemicals used were: 5′-azaC (2 μM), dexamethasone (dex, 1 μM), 5′-azaC (2 μM) together with dexamethasone (1 μM), VPA (2 mM), SAHA (5 μM) and TSA (20 nM). n=4 for each treatment. For all figures in this study, standard deviations are indicated by error bars, and P values by two-tailed student t-test less than 0.05, 0.01 and 0.001 are indicated by one, two and three asterisks respectively.
To quantitate reprogramming efficiency, we established an assay based on Fluorescence-Activated Cell Sorting (FACS) analysis using an Oct4-GFP transgenic reporter, where the expression of the green fluorescent protein (GFP) is controlled by the promoter and enhancers of Oct4, a pluripotent marker gene^14.
MEFs were derived from e13.5 embryos hemizygous for the Oct4-GFP transgenic allele. Embryos were sexed by inspecting gonads for the pattern of Oct4-GFP expression. Gonads and internal organs were removed before processing the embryos for MEF isolation. To generate iPS cells that can be identified in mouse chimeras after blastocyst injection, we derived MEFs from e13.5 embryos that are hemizygous for Oct4-GFP and heterozygous for the Rosa26-lacZ reporter allele. MEFs were grown in DMEM supplemented with 10% FBS, L-glutamine, penicillin/streptoMycin, nonessential amino acids, and sodium pyruvate. MEFs in early passages (up to passage 5) were used for generation of iPS cells.
Moloney-based retroviral vector (pMXs) containing the murine complementary DNAs of Oct4, Sox2, c-Myc, and Klf4 were obtained from Addgene^1. These plasmids were co-transfected into 293T cells with packaging vectors (pUMVC and pCMV-VSVG), and viral supernatants were collected 48 hours post-transfection to infect MEFs. Two to three rounds of infection were performed during a 48 hour period. The first day after viral supernatants were removed was defined as 0 day post-infection. Infected MEFs were subsequently cultured in mouse ES cell media (Knockout DMEM supplemented with 15% Hyclone FBS, L-glutamine, penicillin/streptoMycin, nonessential amino acids, β-mercaptoethanol, and with 1000 U/ml LIF), and treated with small molecules or growth factors for a week starting from 1 or 2 days post-infection. […] All conditions were tested in quadruplicates.

[3] = test system: MEFs infected with the four factors (Oct4, Sox2, Klf4 and c-Myc); assay: cells; conditions: Mus musculus; 4-factor infected MEFs; dose response; read-out: EC50 of reprogramming efficiency (percentage of Oct4-GFP positive cells induced)
[4] = test system: MEFs infected with Oct4, Sox2 and Klf4; assay: GFP positive iPS colony number in 3-factor infected MEFs
Text: FIG. 2(c) Representative pictures at 16 days post-infection showing a significant increase of GFP positive iPS colonies in 3-factor infected MEFs with VPA treatment compared to non-treated control.
(§1) Retroviral introduction of c-Myc could cause tumorigenecity in cells derived from the iPS cells thus generated^2. […] Similar low efficiency was also reported for induction of iPS cells from mouse fibroblasts without c-Myc^24. We tested whether treating the cells with 5′-azaC or VPA improves the efficiency of iPS colony formation without the need for c-Myc. MEFs were first infected with Oct4, Sox2 and Klf4, then treated with 5′-azaC or VPA for a week starting 1 day post-infection. […] Consistent with the FACS data, a 30-40 fold increase of GFP positive colonies was observed compared to control MEFs without treatment (FIG. 2c). This allowed for picking of iPS colonies within two weeks post-infection, sooner than the typical ˜30 days post-infection or later without chemical treatment^13, 24.
For the generation of mouse iPS cells, infected MEFs were cultured in mouse ES cell media until iPS colonies were ready to be picked. In some experiments, knockout serum replacement was used instead of the Hyclone FBS in the mouse ES cell media, which appeared to accelerate the reprogramming process, consistent with a recent report^26. […]

[5] = test system: iPS-m cell lines; assay: Karyotype (chromosome) analysis of iPS-m cell lines induced by VPA treatment
Text: Supplementary FIG. 4. Chromosome analysis of iPS-m cells. […] Shown here is a representative chromosome analysis image from iPS-m84.
Therefore, VPA partially reprograms MEFs towards more ES cell-like.

[6] = test system: MEFs infected with Oct4, Sox2, Klf4 (but no c-Myc); assay: Reprogramming efficiency of 3-factor infected Oct4-GFP MEFs, FACS analysis; conditions: 2 mM for a week; FACS 10 days post-infection; 3-factor infected MEFs
Description: FIG. 2(a) MEFs infected with Oct4, Sox2, Klf4 (but no c-Myc) were treated with 5′-azaC (2 μM) or VPA (2 mM) for a week, the percentage of Oct4-GFP positive cells induced was measured through FACS analysis at 10 days post-infection, and compared to infected MEFs without treatment. n=4 for each condition.
as §1
Moloney-based retroviral vector (pMXs) containing the murine complementary DNAs of Oct4, Sox2, c-Myc, and Klf4 were obtained from Addgene^1. […]

Structure (SMILES): CCCC(CCC)C(=O)O [VPA, valproic acid]
- average number of GFP positive colonies ([1]; 8 days post-infection, out of 270,000 cells seeded, no colonies without chemical treatment): 241 colonies
- difference in colony number, treated versus non-treated ([1]; two weeks post-infection): more than 40 fold
- improvement over the non-treated control [2]: more than 100 fold
- EC50 [3]: 1900 µM
- increase of GFP positive colonies compared to control MEFs without treatment [4]: 30-40 fold
- iPS-m cell lines with normal karyotypes ([5]; iPS-m81, 82, 83 and 84 induced by VPA treatment): Three out of four
- genetic changes at the level of chromosomal abnormalities ([5]; iPS-m cell lines induced with VPA (Table 1)): Nor does VPA treatment cause detectable genetic changes
- improvement of reprogramming efficiency [6]: 50 fold

From patent US20110014164A1, “EFFICIENT INDUCTION OF PLURIPOTENT STEM CELLS USING SMALL MOLECULE COMPOUNDS” (PRESIDENT AND FELLOWS OF HARVARD COLLEGE, priority 2008, published 2011)
